≈ marks a conversion by molar mass, not a printed value.
Legend:
[1] = system: Mycobacterium tuberculosis; assay: Growth inhibition of Mycobacterium tuberculosis H37Rv at 6.25 ug/mL by microplate alamar blue assay; format: functional; settings: read-out: GI
[2] = system: Mycobacterium tuberculosis; assay: Antituberculosis activity against Mycobacterium tuberculosis H37Rv by microplate alamar blue assay; format: functional
[3] = system: Vero; assay: Cytotoxicity against Vero cells; format: cell-based; settings: Chlorocebus sabaeus

Row | Compound | inhibition of growth at 6.25 µg/mL [1] [%] | MIC [2] [µg/mL] | IC50 [3] [µg/mL]
1 | CNC(=S)N/N=C1\C(=O)N(CN2CCOCC2)c2ccc([N+](=O)[O-])cc21 | 96 | > 6.25 | 7.61 (≈ 20.1 µM)
2 | CCCCN1C(=O)C(C)S/C1=N/N=C1\C(=O)Nc2ccc([N+](=O)[O-])cc21 (configuration not stated) | 10 | – | –
3 | O=C1Nc2ccc([N+](=O)[O-])cc2/C1=N/NC(=S)Nc1ccccc1 | 33 | – | –
4 | CNC(=S)N/N=C1\C(=O)N(CN2CCOCC2)c2ccc(F)cc21 | 12 | – | –
5 | Cc1ccc(NC(=S)N/N=C2\C(=O)N(CN3CCCCC3)c3ccc(F)cc32)cc1 | 51 | – | –
6 | Cc1ccc(NC(=S)N/N=C2\C(=O)N(CN3CCOCC3)c3ccc([N+](=O)[O-])cc32)cc1 | 92 | > 6.25 | 17 (≈ 37.4 µM)
7 | CCCCNC(=S)N/N=C1\C(=O)N(CN2CCOCC2)c2ccc([N+](=O)[O-])cc21 | 30 | – | –
8 | CCCCNC(=S)N/N=C1\C(=O)Nc2ccc(F)cc21 | 16 | – | –
9 | O=C1/C(=N\NC(=S)Nc2ccc(F)cc2)c2cc(F)ccc2N1CN1CCOCC1 | 48 | – | –
10 | C=CCNC(=S)N/N=C1\C(=O)N(CN2CCCCC2)c2ccc([N+](=O)[O-])cc21 | 22 | – | –
11 | O=C1Nc2ccc([N+](=O)[O-])cc2/C1=N/NC(=S)Nc1ccc(Br)cc1 | 90 | > 6.25 | 2.59 (≈ 6.16 µM)
12 | O=C1Nc2ccc(F)cc2/C1=N/NC(=S)Nc1ccccc1 | 61 | – | –
13 | C=CCNC(=S)N/N=C1\C(=O)N(CN2CCOCC2)c2ccc(F)cc21 | 24 | – | –
14 | Cc1ccc(N2C(=O)C(C)S/C2=N/N=C2\C(=O)Nc3ccc([N+](=O)[O-])cc32)cc1 (configuration not stated) | 0 | – | –
15 | CNC(=S)N/N=C1\C(=O)N(CN2CCCCC2)c2ccc(F)cc21 | 20 | – | –
16 | CC1S/C(=N/N=C2\C(=O)Nc3ccc([N+](=O)[O-])cc32)N(c2ccc(Br)cc2)C1=O (configuration not stated) | 3 | – | –
17 | CCCCNC(=S)N/N=C1\C(=O)Nc2ccc([N+](=O)[O-])cc21 | 42 | – | –
18 | O=C1Nc2ccc([N+](=O)[O-])cc2/C1=N/NC(=S)Nc1ccc(F)cc1 | 24 | – | –
19 | O=C1/C(=N\NC(=S)NC2CCCCC2)c2cc([N+](=O)[O-])ccc2N1CN1CCOCC1 | 90 | 6.25 (≈ 14 µM) | –
20 | O=C1/C(=N\NC(=S)NC2CCCCC2)c2cc([N+](=O)[O-])ccc2N1CN1CCCCC1 | 87 | – | –
21 | C=CCNC(=S)N/N=C1\C(=O)Nc2ccc([N+](=O)[O-])cc21 | 25 | – | –
22 | CC1S/C(=N/N=C2\C(=O)Nc3ccc([N+](=O)[O-])cc32)N(c2ccccc2)C1=O (configuration not stated) | 9 | – | –
23 | CC1S/C(=N/N=C2\C(=O)Nc3ccc([N+](=O)[O-])cc32)N(c2ccc(F)cc2)C1=O (configuration not stated) | 5 | – | –

Row | Compound | inhibition of growth at 6.25 µg/mL [1] [%] | MIC [2] [µg/mL] | IC50 [3] [µg/mL]
24 | O=C1Nc2ccc([N+](=O)[O-])cc2/C1=N/N=C1/SCC(=O)N1c1ccc(Cl)cc1 | 0 | – | –
25 | Cc1ccc(NC(=S)N/N=C2\C(=O)Nc3ccc(F)cc32)cc1 | 36 | – | –
26 | CCNC(=S)N/N=C1\C(=O)N(CN2CCCCC2)c2ccc(F)cc21 | 2 | – | –
27 | O=C1Nc2ccc(F)cc2/C1=N/NC(=S)Nc1ccc([N+](=O)[O-])cc1 | 31 | – | –
28 | CC1S/C(=N/N=C2\C(=O)Nc3ccc([N+](=O)[O-])cc32)N(c2ccc([N+](=O)[O-])cc2)C1=O (configuration not stated) | 9 | – | –
29 | CCNC(=S)N/N=C1\C(=O)Nc2ccc(F)cc21 | 8 | – | –
30 | CCCCN1C(=O)CS/C1=N/N=C1\C(=O)Nc2ccc([N+](=O)[O-])cc21 | 0 | – | –
31 | O=C1/C(=N\NC(=S)Nc2ccc(Cl)cc2)c2cc(F)ccc2N1CN1CCCCC1 | 63 | – | –
32 | CO[C@H]1/C=C/O[C@@]2(C)Oc3c(C)c(O)c4c(O)c(c(/C=N/N5CCN(C)CC5)c(O)c4c3C2=O)NC(=O)/C(C)=C\C=C\[C@H](C)[C@H](O)[C@@H](C)[C@@H](O)[C@@H](C)[C@H](OC(C)=O)[C@@H]1C [RIFAMPIN] | 97 | 0.125 (≈ 0.152 µM) | > 100
33 | Cc1ccc(N2C(=O)CS/C2=N/N=C2\C(=O)Nc3ccc([N+](=O)[O-])cc32)cc1 | 17 | – | –
34 | CCCCNC(=S)N/N=C1\C(=O)N(CN2CCOCC2)c2ccc(F)cc21 | 34 | – | –
35 | CCN1C(=O)CS/C1=N/N=C1\C(=O)Nc2ccc([N+](=O)[O-])cc21 | 0 | – | –
36 | O=C1/C(=N\NC(=S)Nc2ccc(Cl)cc2)c2cc([N+](=O)[O-])ccc2N1CN1CCOCC1 | 65 | – | –
37 | O=C1Nc2ccc([N+](=O)[O-])cc2/C1=N/NC(=S)NC1CCCCC1 | 90 | > 6.25 | 4.74 (≈ 13.6 µM)
38 | C=CCN1C(=O)CS/C1=N/N=C1\C(=O)Nc2ccc([N+](=O)[O-])cc21 | 2 | – | –
39 | CC1S/C(=N/N=C2\C(=O)Nc3ccc([N+](=O)[O-])cc32)N(c2ccc(Cl)cc2)C1=O (configuration not stated) | 0 | – | –
40 | O=C1Nc2ccc([N+](=O)[O-])cc2/C1=N/N=C1/SCC(=O)N1c1ccccc1 | 0 | – | –
41 | CN1C(=O)CS/C1=N/N=C1\C(=O)Nc2ccc([N+](=O)[O-])cc21 | 0 | – | –
42 | O=C1/C(=N\NC(=S)Nc2ccccc2)c2cc([N+](=O)[O-])ccc2N1CN1CCCCC1 | 31 | – | –
43 | CCNC(=S)N/N=C1\C(=O)N(CN2CCOCC2)c2ccc(F)cc21 | 1 | – | –
44 | O=C1Nc2ccc([N+](=O)[O-])cc2/C1=N/N=C1/SCC(=O)N1C1CCCCC1 | 0 | – | –
45 | O=C1Nc2ccc(F)cc2/C1=N/NC(=S)Nc1ccc(Cl)cc1 | 37 | – | –
46 | CCNC(=S)N/N=C1\C(=O)Nc2ccc([N+](=O)[O-])cc21 | 0 | – | –

Row | Compound | inhibition of growth at 6.25 µg/mL [1] [%] | MIC [2] [µg/mL] | IC50 [3] [µg/mL]
47 | O=C1/C(=N\NC(=S)NCc2ccccc2)c2cc(F)ccc2N1CN1CCCCC1 | 3 | – | –
48 | O=C1/C(=N\NC(=S)Nc2ccc(Cl)cc2)c2cc([N+](=O)[O-])ccc2N1CN1CCCCC1 | 54 | – | –
49 | O=C1/C(=N\NC(=S)Nc2ccc(F)cc2)c2cc(F)ccc2N1CN1CCCCC1 | 38 | – | –
50 | O=C1/C(=N\NC(=S)Nc2ccccc2)c2cc([N+](=O)[O-])ccc2N1CN1CCOCC1 | 93 | > 6.25 | 2.8 (≈ 6.36 µM)
51 | O=C1Nc2ccc([N+](=O)[O-])cc2/C1=N/N=C1/SCC(=O)N1c1ccc(F)cc1 | 0 | – | –
52 | CC1S/C(=N/N=C2\C(=O)Nc3ccc([N+](=O)[O-])cc32)N(C2CCCCC2)C1=O (configuration not stated) | 28 | – | –
53 | O=C1/C(=N\NC(=S)Nc2ccc(Cl)cc2)c2cc(F)ccc2N1CN1CCOCC1 | 58 | – | –
54 | Cc1ccc(NC(=S)N/N=C2\C(=O)Nc3ccc([N+](=O)[O-])cc32)cc1 | 93 | 6.25 (≈ 17.6 µM) | 2.45 (≈ 6.89 µM)
55 | O=C1/C(=N\NC(=S)NCc2ccccc2)c2cc(F)ccc2N1CN1CCOCC1 | 0 | – | –
56 | C=CCN1C(=O)C(C)S/C1=N/N=C1\C(=O)Nc2ccc([N+](=O)[O-])cc21 (configuration not stated) | 3 | – | –
57 | C=CCNC(=S)N/N=C1\C(=O)N(CN2CCCCC2)c2ccc(F)cc21 | 20 | – | –
58 | O=C1/C(=N\NC(=S)NC2CCCCC2)c2cc(F)ccc2N1CN1CCOCC1 | 33 | – | –
59 | O=C1/C(=N\NC(=S)Nc2ccccc2)c2cc(F)ccc2N1CN1CCOCC1 | 56 | – | –
60 | O=C1Nc2ccc(F)cc2/C1=N/NC(=S)Nc1ccc(F)cc1 | 58 | – | –
61 | C=CCNC(=S)N/N=C1\C(=O)Nc2ccc(F)cc21 | 30 | – | –
62 | O=C1Nc2ccc([N+](=O)[O-])cc2/C1=N/N=C1/SCC(=O)N1c1ccc(Br)cc1 | 0 | – | –
63 | O=C1Nc2ccc([N+](=O)[O-])cc2/C1=N/NC(=S)Nc1ccc([N+](=O)[O-])cc1 | 2 | – | –
64 | Cc1ccc(NC(=S)N/N=C2\C(=O)N(CN3CCCCC3)c3ccc([N+](=O)[O-])cc32)cc1 | 88 | – | –
65 | O=C1Nc2ccc(F)cc2/C1=N/NC(=S)NC1CCCCC1 | 39 | – | –
66 | O=C1/C(=N\NC(=S)Nc2ccccc2)c2cc(F)ccc2N1CN1CCCCC1 | 45 | – | –
67 | O=C1Nc2ccc([N+](=O)[O-])cc2/C1=N/NC(=S)Nc1ccc(Cl)cc1 | 75 | – | –
